Values joined by “and” are separate entries in the source; they are usually repeats but may differ in a detail not shown here. Equal values may be shown once.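 1) Cells in 96-well plates. 2) Compound, 48 h, 5 concentrations. 3) Linear interpolation between surrounding doses. 4) Unreached endpoint = highest concentration. GI50 marks 50% less growth. TGI denotes the concentration required for complete inhibition of growth.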

In the experiment the test system is MDA-MB-468 breast. Briefly: NCI-60 cell line screen, 48 h.
Turning to `C/C(=C\c1ccn(-c2ccc(N)c(C(F)(F)F)c2)n1)[C@@H]1C[C@@H]2O[C@]2(C)CCC[C@H](C)[C@H](O)[C@@H](C)C(=O)C(C)(C)[C@@H](O)CC(=O)O1`, the GI50 was 10.6 nM and the TGI is 14.2 µM.

Turning to `COc1ccc(C(=S)c2cc(OC)c(OC)c(OC)c2)cc1OC(=O)CCl`, the GI50 is 96.4 nM.

Turning to `O=c1ncc(-c2ccc(C(F)(F)F)cc2)c(NC2CCCCCC2)[nH]1`, the GI50 is 21000 nM and the TGI was 51.4 µM.

In the case of `Nc1nc(N)c2nc(CNc3ccc(C(=O)CC(CCC(=O)O)C(=O)O)cc3)cnc2n1` (stereo unspecified), the GI50 is 208 nM and the TGI came out at 2.34 µM.

Regarding `CN1CCN(C(=O)c2ccc(NC(=O)Nc3ccc(N(C)c4ccnc(Nc5ccc(CS(C)(=O)=O)cc5)n4)cc3)cc2)CC1`, the GI50 is 4720 nM and the TGI is above 25 µM.

`C#C[C@@]1(O)[C@@H](CO)O[C@@H](n2cc(Cl)c3c(N)ncnc32)[C@@H]1O`: the GI50 was 180 nM and the TGI stood at 0.451 µM.

In the case of `COc1cc2c(c(OC)c1OC)-c1ccc([O-])c(=O)cc1[C@@H](NC(C)=O)CC2.COc1cc2c(c(OC)c1OC)-c1ccc([O-])c(=O)cc1[C@@H](NC(C)=O)CC2.[Cu+2]`, the GI50 was 4700 nM and the TGI stood at 43.2 µM.

Turning to `COc1cc2[nH]c(C(=O)c3cc(OC)c(OC)c(OC)c3)c(N)c2cc1C#CCO`, the GI50 is 183 nM and the TGI was above 100 µM.

On to `COc1ccc(OC)c(/C=C/c2nnc(Nc3ccc(Cl)cc3)o2)c1`, for which the GI50 was 16400 nM and the TGI was above 100 µM.

In the case of `COc1cc2c(c(OC)c1OC)-c1ccc(OC)c(=O)cc1[C@@H](NC(=O)CCl)CC2`, the GI50 was below 10 nM and the TGI is below 0.01 µM.

As for `Brc1cccc(/C=N/Nc2nc(N/N=C/c3cccc(Br)c3)nc(N3CCOCC3)n2)c1`, the GI50 is 1910 nM and the TGI was 6.09 µM.

In the case of `CCc1ccc(C2=C/C(=C/c3ccc(Cl)cc3)C(=O)N2CCc2ccc(S(N)(=O)=O)cc2)cc1`, the GI50 was 1940 nM and the TGI worked out at 5.25 µM.

For the molecule `O=S(=O)(NCCNc1cc(-c2cn(-c3ccccc3)nc2-c2cccc(O)c2)ccn1)c1ccc(C(F)(F)F)cc1`, the GI50 was 2050 nM and the TGI was 5.02 µM.

Turning to `CCCCCCCCCCCCCOC(=O)c1c(C)[nH]c(/C=C2\N=C(c3ccc[nH]3)C=C2OC)c1C`, the GI50 is 385 nM and the TGI turned out to be 44.1 µM.

On to `CN(C)CC/C=C1\c2ccccc2Sc2ccc(Cl)cc21`, for which the GI50 is 1390 nM and the TGI was found to be 3.02 µM.

With `CC(C)(Cl)CCC1=C(Cl)C(=O)c2ccccc2C1=O`, the GI50 is 1500 nM and the TGI came out at 3.49 µM.

Consider `O=C1C(=O)c2cc([N+](=O)[O-])ccc2-c2ccccc21`, for which the GI50 is 1640 nM and the TGI amounted to 3.19 µM.

In the case of `NC1=NC(=O)N2CC12` (stereo unspecified), the GI50 is 76800 nM and the TGI was 294 µM.

For the molecule `O=C1C=C(Nc2ccccc2)c2ncccc2C1=O`, the GI50 is 1570 nM and the TGI is 3.16 µM.

On to `CC(C)(C)c1cc(NC(=O)Nc2ccc(-c3cn4c5c(sc4n3)CCc3cn(CCCN4CCCCC4)cc3-5)cc2)no1`, for which the GI50 was 1840 nM and the TGI was determined as 3.72 µM.

As to `CCN(Cc1ccc(F)cc1)c1ccc(CO)c(Cl)c1`, the GI50 is 14.7 nM and the TGI stood at 0.0332 µM.

Consider `COc1cc(N2CCC(N3CCN(C)CC3)CC2)ccc1Nc1ncc(Cl)c(Nc2ccccc2P(C)(C)=O)n1`, for which the GI50 was 1680 nM and the TGI was determined as 5.29 µM.

As to `CCCCCCCCN(CCCCCCCC)C(=N)c1ccnc2ccccc12`, the GI50 is 342 nM and the TGI worked out at 1.27 µM.

`CCC1CCc2nc3sc(C(=O)Nc4ccccc4F)c(N)c3cc2C1` (stereo unspecified): the GI50 was 347 nM and the TGI is above 100 µM.

Regarding `COc1ccc(C(=O)/C=C/c2cc3ccccc3[nH]c2=O)cc1`, the GI50 was 10500 nM and the TGI was found to be 23.1 µM.

For `CCN1C(=O)N(CC)C2C1NN=c1s/c(=C3\C(=O)N(CCC(C)C)c4ccccc43)c(=O)n12` (stereo unspecified), the GI50 is 283 nM and the TGI was 0.72 µM.

Turning to `Nc1ncc(-c2cnn(C3CCNCC3)c2)cc1-c1nc2ccccc2o1`, the GI50 is 367 nM and the TGI is 2.33 µM.

Consider `O=C1C2CC3C(CC2C(=O)[N]1[Sn]([c]1ccccc1)([c]1ccccc1)[c]1ccccc1)C1(Cl)C(Cl)=C(Cl)C3(Cl)C1(Cl)Cl` (stereo unspecified), for which the GI50 is 120 nM and the TGI was 0.28 µM.

As to `COc1cccc(-c2nn(-c3ccccc3)cc2-c2ccnc(NCCNS(=O)(=O)c3ccc(C(F)(F)F)cc3)c2)c1`, the GI50 was 3310 nM and the TGI turned out to be 15.1 µM.

For `Cc1ccc(-c2csc(N(C(=O)N3CCN(c4cc5c(cc4F)c(=O)c(C(=O)O)cn5C4CC4)CC3)c3ccccc3)n2)cc1`, the GI50 is 366 nM and the TGI is above 100 µM.

On to `CNC(=O)c1ccc(Nc2ncc(C(F)(F)F)c(NCc3nccnc3N(C)S(C)(=O)=O)n2)cc1`, for which the GI50 was 1590 nM and 2060 nM and 1980 nM; the TGI was 4.99 µM and 5.01 µM and 5.29 µM.

Regarding `CS(=O)(=O)CCNCc1ccc(-c2ccc3ncnc(Nc4ccc(OCc5ccccc5)c(C(F)(F)F)c4)c3c2)o1`, the GI50 was 1860 nM and the TGI amounted to 6.4 µM.

As for `CS(=O)(=O)c1ccc(N/N=C/c2c(-c3ccc(S(C)(=O)=O)cc3)[nH]c3ccc(F)cc23)cc1`, the GI50 was 3490 nM and the TGI is above 50 µM.

As to `COc1ccc(NC(=O)[C@H](C)NC(=O)OC(C)(C)C)cc1C(=O)Nc1cccc(-c2cc(=O)c3c(OC)c(OC)c(OC)cc3o2)c1`, the GI50 is 2250 nM and the TGI was determined as 6.28 µM.

`CCOC(=O)[C@H](CSSc1ncnc2cc[nH]c12)NC(=O)[C@@H](C)c1ccc2cc(OC)ccc2c1`: the GI50 is 179 nM and the TGI is 91.7 µM.

Turning to `Nc1ccccc1NC(=O)c1ccc(CSc2nc(N3CCOCC3)c3cccn3n2)cc1`, the GI50 was 1720 nM and the TGI came to 6.47 µM.

With `Cc1cc(NC(=O)c2ccc(NS(=O)(=O)CCO)cc2N2CCC3(CC2)CC3)nc(N2CCC(F)(F)CC2)n1`, the GI50 was 69.4 nM and the TGI came out at 2.93 µM.

Turning to `COc1ccc(-c2coc3ncnc(N)c23)cc1`, the GI50 is above 25000 nM and the TGI was above 25 µM.

For `C[C@H](c1ccc(Cl)cc1N)N1C(=O)c2cc(I)ccc2N(CCCN2CCN(C)CC2)C(=O)[C@@H]1c1ccc(Cl)cc1`, the GI50 was 1570 nM and the TGI worked out at 3.14 µM.

For the molecule `O=c1oc2ccc(Cl)cc2c(=O)n1-c1ccc(Cl)cc1F`, the GI50 was 382 nM and the TGI stood at 1.87 µM.

Turning to `CCCCCCN(CCCCCC)C(=N)c1ccnc2ccccc12`, the GI50 was 3130 nM and the TGI stood at 11.1 µM.

Values taken from PubChem BioAssay (NCI).
